Results from patent US8802597B2, “Herbicidal pyrimidines” (E I du Pont de Nemours and Company, priority 2003, dated 2014).
Where two headings read alike, the source gives them in different places.

Assays:
Format in all cases: in vivo
[1] = system: bermudagrass (Cynodon dactylon); assay: Test C pre/postemergence; conditions: Preemergence
Excerpt: (§1) Seeds or nutlets of plant species selected from bermudagrass (Cynodon dactylon), Surinam grass (Brachiaria decumbens), cocklebur (Xanthium strumarium), corn (Zea mays), crabgrass (Digitaria sanguinalis), woolly cupgrass (Eriochloa villosa), giant foxtail (Setaria faberii), goosegrass (Eleusine indica), johnsongrass (Sorghum halepense), kochia (Kochia scoparia), lambsquarters (Chenopodium album), morningglory (Ipomoea coccinea), eastern black nightshade (Solanum ptycanthum), yellow nutsedge (Cyperus esculentus), pigweed (Amaranthus retroflexus), common ragweed (Ambrosia elatior), soybean (Glycine max), common (oilseed) sunflower (Helianthus annuus), and velvetleaf (Abutilon theophrasti) were planted and treated preemergence with test chemicals formulated in a non-phytotoxic solvent mixture which included a surfactant.
(§2) At the same time, plants selected from these crop and weed species and also winter barley (Hordeum vulgare), blackgrass (Alopecurus myosuroides), canarygrass (Phalaris minor), chickweed (Stellaria media), downy brome (Bromus tectorum), green foxtail (Setaria viridis), Italian ryegrass (Lolium multiflorum), wheat (Triticum aestivum), wild oat (Avena fatua) and windgrass (Apera spica-venti) were treated with postemergence applications of some of the test chemicals formulated in the same manner. Plants ranged in height from 2 to 18 cm (1- to 4-leaf stage) for postemergence treatments. Plant species in the flooded paddy test consisted of rice (Oryza sativa), umbrella sedge (Cyperus difformis), duck salad (Heteranthera limosa) and barnyardgrass (Echinochloa crus-galli) grown to the 2-leaf stage for testing. Treated plants and controls were maintained in a greenhouse for 12 to 14 days, after which time all species were compared to controls and visually evaluated. Plant response ratings, summarized in Table C, are based on a scale of 0 to 100 where 0 is no effect and 100 is complete control. A dash (-) response means no test result.

soybean (Glycine max) = assay: Test C pre/postemergence; conditions: Preemergence, scale 0 to 100, 0 no effect, 100 complete control
Excerpt: as §1, §2

[2] = system: lambsquarters (Chenopodium album); assay: Test C pre/postemergence; conditions: Preemergence
Excerpt: as §1, §2

[3] = system: johnsongrass (Sorghum halepense); assay: Test C pre/postemergence; conditions: Preemergence
Excerpt: as §1, §2

[4] = system: crabgrass (Digitaria sanguinalis); assay: Test A pre/postemergence; conditions: for pest or weed control at 125 g/ha: 125 g ai/ha
In short: (§3)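 Greenhouse herbicide test with preemergence directed soil spray and postemergence foliar spray at the 1- to 2-leaf stage; visual control rating 0–100 versus untreated at ~10 days.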

[5] = system: barnyardgrass (Echinochloa crus-galli); assay: Test A pre/postemergence; conditions: for pest or weed control at 500 g/ha: 500 g ai/ha
In short: as §3

[6] = system: redroot pigweed (Amaranthus retroflexus); assay: Test A pre/postemergence; conditions: Amaranthus retroflexus, 240 h, read-out: Plant response rating, Pigweed; for pest or weed control at 125 g/ha: 125 g ai/ha; for pest or weed control at 500 g/ha: 500 g ai/ha
In short: as §3

[7] = system: morningglory (Ipomoea spp.); assay: Test A pre/postemergence; conditions: Ipomoea, 240 h, read-out: Plant response rating, Morningglory; for pest or weed control at 125 g/ha: 125 g ai/ha; for pest or weed control at 500 g/ha: 500 g ai/ha
In short: as §3

[8] = system: giant foxtail (Setaria faberi); assay: Test A pre/postemergence; conditions: for pest or weed control at 500 g/ha: 500 g ai/ha
In short: as §3

[9] = system: velvetleaf (Abutilon theophrasti); assay: Test A pre/postemergence; conditions: Abutilon theophrasti, 240 h, read-out: Plant response rating, Velvetleaf; for pest or weed control at 125 g/ha: 125 g ai/ha; for pest or weed control at 500 g/ha: 500 g ai/ha
In short: as §3

[10] = 16 g ai/ha, scale 0 to 100, 0 no effect, 100 complete control
[11] = Preemergence, 125 g ai/ha, 0 to 100 scale where 0 is no effect and 100 is complete control, approximately ten days
[12] = post-emergence, Postemergence, 0 to 100 scale (0 no effect, 100 complete control)
[13] = pre-emergence, Preemergence, 0 to 100 scale where 0 is no effect and 100 is complete control, approximately ten days

## Nc1nc(C2CC2)nc(C(=O)[O-])c1Cl.[Na+] [Compound 77, 6-amino-5-chloro-2-cyclopropyl-4-pyrimidinecarboxylic acid monosodium salt]
[1]; Cynodon dactylon, pre-emergence, 31 g ai/ha, scale 0 to 100, 0 no effect, 100 complete control, read-out: Plant response rating, Bermudagrass
  pest or weed control at 31 g/ha: 0%
[1]; Cynodon dactylon, pre-emergence, 62 g ai/ha, scale 0 to 100, 0 no effect, 100 complete control, read-out: Plant response rating, Bermudagrass
  pest or weed control at 62 g/ha: 0%
[1]; Cynodon dactylon, pre-emergence, 125 g ai/ha, scale 0 to 100, read-out: Plant response rating, Bermudagrass
  pest or weed control at 125 g/ha: 0%
[1]; [10]
  Plant response rating, Bermudagrass: 0
Soybean (Glycine max); Glycine max, pre-emergence, 31 g ai/ha, read-out: Plant response rating, Soybean
  plant injury at 31 g/ha: 100%
Soybean (Glycine max); Glycine max, pre-emergence, 62 g ai/ha, read-out: Plant response rating, Soybean
  plant injury at 62 g/ha: 100%
Soybean (Glycine max); 16 g ai/ha
  Plant response rating, Soybean: 40
[2]; [10]
  Plant response rating, Lambsquarters: 0
[2]; 31 g ai/ha, scale 0 to 100, 0 no effect, 100 complete control
  Plant response rating, Lambsquarters: 0
[2]; 125 g ai/ha, scale 0 to 100
  Plant response rating, Lambsquarters: 40
[3]; [10]
  Plant response rating, Johnsongrass: 0
[3]; 62 g ai/ha, scale 0 to 100, 0 no effect, 100 complete control
  Plant response rating, Johnsongrass: 0
[3]; 125 g ai/ha, scale 0 to 100
  Plant response rating, Johnsongrass: 0
[3]; Sorghum halepense, pre-emergence, 31 g ai/ha, scale 0 to 100, 0 no effect, 100 complete control, read-out: Plant response rating, Johnsongrass
  pest or weed control at 31 g/ha: 0%
[4]; Digitaria sanguinalis, post-emergence, 240 h, Postemergence, 0 to 100 scale (0 no effect, 100 complete control), read-out: Plant response rating, Crabgrass
  pest or weed control at 125 g/ha: 70%
[4]; Digitaria sanguinalis, pre-emergence, 240 h, Preemergence, 0 to 100 scale where 0 is no effect and 100 is complete control, approximately ten days, read-out: Plant response rating, Crabgrass
  pest or weed control at 125 g/ha: 70%
[4]; Digitaria sanguinalis, pre-emergence, 240 h, Preemergence, 500 g ai/ha, 0 to 100 scale where 0 is no effect and 100 is complete control, approximately ten days, read-out: Plant response rating, Crabgrass
  pest or weed control at 500 g/ha: 80%
[4]; Postemergence, 500 g ai/ha, 0 to 100 scale (0 no effect, 100 complete control)
  Plant response rating, Crabgrass: 90
[5]; Echinochloa crus-galli, post-emergence, 240 h, Postemergence, 125 g ai/ha, 0 to 100 scale (0 no effect, 100 complete control), read-out: Plant response rating, Barnyardgrass
  pest or weed control at 125 g/ha: 90%
[5]; Echinochloa crus-galli, post-emergence, 240 h, Postemergence, 0 to 100 scale (0 no effect, 100 complete control), read-out: Plant response rating, Barnyardgrass
  pest or weed control at 500 g/ha: 90%
[5]; Echinochloa crus-galli, pre-emergence, 240 h, Preemergence, 0 to 100 scale where 0 is no effect and 100 is complete control, approximately ten days, read-out: Plant response rating, Barnyardgrass
  pest or weed control at 500 g/ha: 100%
[5]; [11]
  Plant response rating, Barnyardgrass: 90
[6]; [12]
  pest or weed control at 125 g/ha: 95%
  pest or weed control at 500 g/ha: 95%
[6]; [13]
  pest or weed control at 125 g/ha: 85%
  pest or weed control at 500 g/ha: 95%
[7]; [12]
  pest or weed control at 125 g/ha: 95%
  pest or weed control at 500 g/ha: 100%
[7]; [13]
  pest or weed control at 125 g/ha: 100%
  pest or weed control at 500 g/ha: 100%
[8]; [11]
  Plant response rating, Foxtail, Giant: 75
[8]; Setaria faberi, post-emergence, 240 h, Postemergence, 125 g ai/ha, 0 to 100 scale (0 no effect, 100 complete control), read-out: Plant response rating, Foxtail, Giant
  pest or weed control at 125 g/ha: 85%
[8]; Setaria faberi, post-emergence, 240 h, Postemergence, 0 to 100 scale (0 no effect, 100 complete control), read-out: Plant response rating, Foxtail, Giant
  pest or weed control at 500 g/ha: 90%
[8]; Setaria faberi, pre-emergence, 240 h, Preemergence, 0 to 100 scale where 0 is no effect and 100 is complete control, approximately ten days, read-out: Plant response rating, Foxtail, Giant
  pest or weed control at 500 g/ha: 95%
[9]; [12]
  pest or weed control at 125 g/ha: 95%
  pest or weed control at 500 g/ha: 100%
[9]; [13]
  pest or weed control at 125 g/ha: 100%
  pest or weed control at 500 g/ha: 100%
